Assay results: patent publication US9572862B2, “Methods for promoting lipolysis and oxidation in liver and adipose tissue using catestatin” (The Regents of the University of California, priority 2012, dated 2017)
“Also recorded” adds a separate entry of the source. Non-standard residues stand in square brackets, D forms with d.

Key:
primary adipocytes = assay: Lipolytic glycerol release from primary adipocytes; type: cell-based, mice; details: for effect on the lipolytic effect of isoproterenol: adipocytes, with isoproterenol 10 μM
Procedure: Mice were fasted for 12 hr prior to blood draw. Triglycerides (TG) and non-esterified fatty acids (NEFA) were assayed using kits from Wako Diagnostics (Richmond, Va.). Glycerol was assayed using a kit from Sigma (St Louis, Mo.). Media from the explant cultures and mouse serum were analysed for glycerol and NEFA as a measure of lipolysis. ELISA kits were used to determine plasma levels of leptin, adiponectin (Millipore, Billerica, Mass.) and CST (Bachem, Torrance, Calif.). For CST assay, plasma samples and reference standards were passed through mini C18 columns and the flow-through fractions were assayed. The same kits were used for measurements in culture media.
Primary adipocytes were isolated from epididymal fat pads essentially as described (43). Adipose tissues from WT and Chga-KO mice were minced in Krebs-Ringer bicarbonate-Hepes (KRBH) buffer, pH 7.4, containing 10 mM bicarbonate, 30 mM Hepes, 200 nM adenosine, 2.5 mM glucose and 1% fatty-acid-free BSA, and digested for 30-40 min with Type I collagenase (10 mg/g tissue; Invitrogen, Carlsbad, Calif.) with gentle swirling in a 37° C. incubator. The digestion mixture was then filtered through a nylon strainer and centrifuged at 400×g for 1 min. The oily layer (released from broken cells) above floating fat cells was skimmed off, and fat cells were recovered from the top and washed three times with warm KRBH.

[1] = system: PC-12 neuroendocrine cells; assay: cAMP production in PC-12 cells; type: cell-based; details: CST 100 nM, ISO 10 μM, 10 min
3T3-L1 adipocytes = assay: cAMP production in 3T3-L1 adipocytes; type: cell-based; details: CST 100 nM, ISO 10 μM, 10 min
CST-KO mice = assay: ITT in insulin resistant CST-KO mice with CST, RI-CST or NSC-177941; type: in vivo; details: for insulin sensitivity during ITT: NCD-fed CST-KO mice, insulin 0.4 mU/g BW
From the text: FIG. 16. […] Figures in parentheses indicate number of animals.

Chga-/- mice [2] = assay: Blood pressure in hypertensive Chga-KO mice; type: in vivo
Chga-/- mice [3] = details: reference (8), cited from earlier work
[4] = reference (8); cited from earlier work
Chk2 protein kinase = Chk2 protein kinase (Homo sapiens, UniProt O96017); details: Jobson et al. (9); cited from earlier work
Chk2 protein kinase, sequence (O96017 whole entry): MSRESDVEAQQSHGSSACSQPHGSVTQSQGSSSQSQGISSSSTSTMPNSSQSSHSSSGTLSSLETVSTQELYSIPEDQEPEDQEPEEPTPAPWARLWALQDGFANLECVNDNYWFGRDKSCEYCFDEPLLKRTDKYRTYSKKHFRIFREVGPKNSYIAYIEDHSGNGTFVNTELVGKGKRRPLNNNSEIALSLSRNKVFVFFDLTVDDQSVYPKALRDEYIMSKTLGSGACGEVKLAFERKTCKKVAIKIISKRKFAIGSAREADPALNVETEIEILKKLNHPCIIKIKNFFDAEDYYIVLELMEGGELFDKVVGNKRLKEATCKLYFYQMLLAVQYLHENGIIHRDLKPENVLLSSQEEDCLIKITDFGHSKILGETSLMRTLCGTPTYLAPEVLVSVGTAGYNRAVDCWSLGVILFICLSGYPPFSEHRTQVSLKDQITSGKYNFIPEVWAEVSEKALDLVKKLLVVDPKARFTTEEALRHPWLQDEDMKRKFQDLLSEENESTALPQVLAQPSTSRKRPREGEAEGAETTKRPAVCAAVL

[5] = Screening of CST structural analogs for blood pressure reduction; details: in vivo
HFD-fed Chga-KO mice = assay: Peptide supplementation to HFD-fed Chga-KO mice (insulin sensitivity); type: in vivo; details: HFD (60%)-fed Chga-KO mice
[6] = system: adipose tissue explants from Ob/Ob mice; assay: Lipolysis and fatty acid oxidation in adipose explants of Ob/Ob mice; type: cell-based
Procedure: (§1) FIG. 8. Lipolysis and fatty acid oxidation in the adipose tissue explants of DIO and Ob/Ob mice after treatment with saline or CST for 16 days. Explants were incubated with saline or leptin (1 μM) for 3 hr and the concentrations of glycerol (A&C) and NEFA (B&D) released into the media from DIO (A&B) and Ob/Ob (C&D) explants were determined as a measure of lipolysis. Homogenates of the explants from DIO (E) and Ob/Ob […] were used to determine their capacity for oxidation of U-^14C-palmitate in response to the treatment with saline, CST, leptin and CST+leptin. The ^14CO2 released was captured and counted as the measure of fatty acid oxidation.
(§2) Adipose tissue explants were prepared as described (42). Epididymal fat pads from 12 hr fasted WT, Chga-KO, DIO and Ob/Ob mice with or without CST treatment were collected in Kreb-Ringer-phosphate (KRP) buffer containing 10 mM Hepes and 0.5% BSA. Tissues were minced to 1-2 mm size and treated with 100 nM CST, 1 μM leptin, or saline for 30 min (for signaling analysis) or 3 hr (for lipolysis and β-oxidation assays). Explants were also treated acutely with CST, leptin, a combination, or saline. At the end, incubation media were saved for analysis of glycerol and fatty acid release. Explants were washed prior to homogenization for immunoblotting and analysis of fatty acid oxidation.
(§3) Oxidation of radiolabeled palmitate in the homogenates of adipose tissue explants as described previously (45). For oxidation studies of cultured cells, HepG2 (hepatocytes) and 3T3-L1 preadipocytes were obtained from ATCC and cultured following supplier's protocol. Confluent 3T3-L1 cultures were differentiated into adipocytes by treating with a cocktail of dexamethasone (100 nM), IBMX ([…]) and insulin (100 nM) for 10 days. Media were then switched to serum-free DMEM with 1% BSA. Hepatocytes were assayed for lipogenesis and fat oxidation in response to CST treatment. Serum-free cultures were treated with CST (100 nM) for 24 hr followed by a 2 hr incubation with U^14C-palmitate (0.5 μCi/ml). Fatty acid oxidation in cells was determined by modifying a published method (46). Specifically, the culture media in 24-well plates were acidified with 10% HClO4 after incubation with the labeled fatty acid and immediately covered with a thick filter paper sheet (cut to size) soaked in 2 N NaOH and placed underneath the plastic lid. The whole plate was sealed with parafilm. After further incubation for 2 hr, the filter paper sheet was marked as circles around the rim of the wells and then the circles were excised. The filter discs were counted to determine the amount of ^14CO2 absorbed in the papers. Cells in the culture wells were lysed in 1 N NaOH and protein content was assayed using Folin's reagent (BioRad, Hercules, Calif.).

[7] = system: AMPK and Stat3 phosphorylation; assay: AMPK and Stat3 signaling in adipose tissue explants from Chga-KO mice; type: cell-based; details: leptin 1 μM 30 min
Procedure: FIG. 6. Regulation of AMPK and Stat3 signaling by CST in adipose tissue explants. Explants from Chga-KO mice were treated with saline or CST (100 nM for 30 min) and immunoblotted for pAMPK and AMPK (A). Adipose explants from WT and Chga-KO mice were immunoblotted for pAMPK and AMPK after treatment with saline or leptin (1 μM) for 30 min (B). pAMPK and AMPK (C) and pStat3 and Stat3 (D) signaling in adipose explants from WT and Chga-KO mice after treatment for 30 min with saline, CST (100 nM), leptin (1 μM) or leptin plus CST.
as §2
(§4) Adipose tissue explants after treatments ex vivo and tissues from mice treated in vivo were homogenized in a buffer containing phosphatase and protease inhibitors (20 mM Tris/HCl (pH 7.5), 250 mM sucrose, 2 mM EDTA, 2 mM EGTA, 2 mM Na3VO4, 10 mM NaF, 2 mM Na4P2O7, 1 mM phenylmethylsulfonyl fluoride, 20 μg/ml leupeptin, 10 μg/ml aprotinin, and 1 μM LR-microcystin) as described (38,44). Homogenates were subjected to SDS-PAGE and immunoblotted. Primary antibodies for AMPK and Stat3 were from Cell Signaling Technology (Beverly, Mass.). The chemiluminescence kit was from Pierce (Rockford, Ill.).

[8] = system: STAT3 and AMPK phosphorylation; assay: Stat3 and AMPK signaling in adipose explants from DIO mice; type: cell-based; details: CST in vivo, leptin 1 μM ex vivo 30 min
Procedure: (§5) FIG. 9. Stat3 and AMPK signaling in the adipose tissue explants from DIO and Ob/Ob mice treated with saline, CST (in vivo) and leptin (ex vivo). Explants from DIO mice (A&B) and Ob/Ob mice (C&D) were incubated with saline or leptin (1 μM) for 30 min, homogenized and immunoblotted for phospho- and total Stat3 (A&C) as well as phospho- and total AMPK signals (B&D). Results are presented as the ratio of signal strength of phospho-over total.
as §2, §4

[9] = system: STAT3 and AMPK phosphorylation; assay: Stat3 and AMPK signaling in adipose explants from Ob/Ob mice; type: cell-based; details: CST in vivo, leptin 1 μM ex vivo 30 min
Procedure: as §5, §2, §4

[10] = system: adipose tissue explants from DIO mice; assay: Lipolysis and fatty acid oxidation in adipose explants of DIO mice; type: cell-based
Procedure: as §1, §2, §3

[11] = CST in vivo 16 days, leptin 1 μM ex vivo 3 hr

## CNC[C@H](O)c1cccc(O)c1 [phenylephrine, (R)-3-[-1-hydroxy-2-(methylamino)ethyl]phenol]
Primary adipocytes
  effect on the lipolytic effect of isoproterenol: dampened

## CC(C)NCC(O)c1ccc(O)c(O)c1 (racemic) [isoproterenol, (RS)-4-[1-hydroxy-2-(isopropylamino)ethyl]benzene-1,2-diol, reference compound]
[1]
  cAMP production: stimulated
3T3-L1 adipocytes
  cAMP production: stimulated

## amino-l372qpGpGrfGyararfslkmss352-carboxyl (SEQ ID NO:27) (H-[dL][dQ][dP]G[dP]G[dR][dF]G[dY][dA][dR][dA][dR][dF][dS][dL][dK][dM][dS][dS]-OH; SMILES CSCC[C@@H](NC(=O)[C@@H](CCCCN)NC(=O)[C@@H](CC(C)C)NC(=O)[C@@H](CO)NC(=O)[C@@H](Cc1ccccc1)NC(=O)[C@@H](CCCNC(=N)N)NC(=O)[C@@H](C)NC(=O)[C@@H](CCCNC(=N)N)NC(=O)[C@@H](C)NC(=O)[C@@H](Cc1ccc(O)cc1)NC(=O)CNC(=O)[C@@H](Cc1ccccc1)NC(=O)[C@@H](CCCNC(=N)N)NC(=O)CNC(=O)[C@H]1CCCN1C(=O)CNC(=O)[C@H]1CCCN1C(=O)[C@@H](CCC(N)=O)NC(=O)[C@H](N)CC(C)C)C(=O)N[C@H](CO)C(=O)N[C@H](CO)C(=O)O) [RI-CST, retro-inverso peptide equivalent of human CST]
CST-KO mice; ITT in CST-KO mice
  persistence of the insulin-sensitizing effect: persisted throughout the experimental period
CST-KO mice
  insulin sensitivity during ITT: increasing sensitivity to insulin; also recorded: Improvement in insulin sensitivity
Chga-/- mice [2]; R-I versus W-T isoform
  interval for which the therapeutic BP effect was sustained: > 8 h
Chga-/- mice [2]; monogenic model of hypertension
  high BP phenotype: effective in rescuing (reducing) the high BP phenotype
Chga-/- mice [3]; compared to CST
  period of BP suppression: > 8 h
Chga-/- mice [3]; hypertensive Chga-KO mice
  SBP: functional in reducing SBP
[4]
  protease degradation: fairly resistant

## C/C(=N\N=C(N)N)c1cccc(NC(=S)Nc2cccc(/C(C)=N/N=C(N)N)c2)c1 [NSC-177941, 1,3-bis[3-[(E)-N-(diaminomethyllideneamino)-C-methylcarbonimidoyl]phenyl]thiourea]
CST-KO mice; ITT in CST-KO mice
  effect on insulin sensitivity in the first 30 min: ineffective
  time window of increase in insulin sensitivity: 30 to 90 min
CST-KO mice
  insulin sensitivity during ITT: transient increase in insulin sensitivity
CST-KO mice; listed as NSC-177941
  insulin sensitivity during ITT: Improvement in insulin sensitivity
Chk2 protein kinase
  inhibition of Chk2 protein kinase activity: inactive
[5]
  blood pressure: reducing blood pressure

## PST: anti-insulin CHGA-derived peptide pancreastatin (CHGA250-301) [reference compound]
HFD-fed Chga-KO mice
  insulin sensitivity (GTT): reversed the phenotype

## Cc1ccc(N(CC2=NCCN2)c2cccc(O)c2)cc1 [phentolamine, 3-[(4,5-dihydro-1H-imidazol-2-ylmethyl)(4-methylphenyl)amino]phenol]
Primary adipocytes
  effect on the lipolytic effect of isoproterenol: potentiated
Primary adipocytes; primary adipocytes, substance alone
  glycerol release (lipolysis): stimulated lipolysis

## leptin: adipokine hormone, ligand of leptin receptor (Ob-R)
[6]
  palmitate oxidation: stimulatory for oxidation
[6]; [11]
  lipolysis (glycerol and NEFA release): stimulated lipolysis
[7]
  phosphorylation of AMPK following acute leptin treatment, compared to WT: decreased
  phosphorylation of STAT3 following acute leptin treatment, compared to WT: decreased
[8]
  AMPK phosphorylation: did not stimulate
  STAT3 phosphorylation: did not stimulate
[9]
  AMPK phosphorylation: stimulated phosphorylation
  STAT3 phosphorylation: stimulated phosphorylation
[10]
  palmitate oxidation: neither CST nor leptin alone stimulated oxidation
[10]; [11]
  NEFA release in the media: did not stimulate lipolysis
  glycerol release in the media: did not stimulate lipolysis
